Numbered stars: 1 amine (or outer) side, 2 acyl side, 3 side chain; on linkers, the order of the positions; unused ones are H or OH. Bridge positions count the residues as written; N and C are the ends. Square brackets hold non-standard residues; d marks the D form. Peptide text beside a SMILES is read from it. Trp(5-F) = N[C@@H](Cc1c[nH]c2ccc(F)cc12)C(=O)O; mXylylene = c1cc(C[*:1])cc(C[*:2])c1; PEG4 = NCCOCCOCCOCCOCCC(=O)O; αMeP = C[C@@]1(C(=O)O)CCCN1; Mpa = O=C(O)CCS
Legend:
Chymotrypsinogen A = Chymotrypsinogen A (Bos taurus, UniProt P00766); experiment: Enzymatic stability assessed as bovine pancreatic alpha-chymotrypsin-mediated compound hydrolysis by measuring parent compound remaining at 100 uM incubated for 1 hr by LC-MS/MS analysis; assay type: ADME; conditions: cattle, read-out: Stabilty
[1] = biological target: Chymotrypsin-like elastase family member 1 (Sus scrofa, UniProt P00772); experiment: Enzymatic stability assessed as porcine type 4 pancreatic elastase-mediated compound hydrolysis by measuring parent compound remaining at 100 uM incubated for 1 hr by LC-MS/MS analysis; assay type: ADME; conditions: pig, read-out: Stabilty
[2] = Enzymatic stability assessed as porcine pepsin-mediated compound hydrolysis by measuring parent compound remaining at 100 uM incubated for 1 hr by LC-MS/MS analysis; assay type: ADME, Sus scrofa; conditions: pig, read-out: Stabilty
[3] = Enzymatic stability assessed as bovine pancreatic trypsin-mediated compound hydrolysis by measuring parent compound remaining at 100 uM incubated for 1 hr by LC-MS/MS analysis; assay type: ADME, Bos taurus; conditions: cattle, read-out: Stabilty
[4] = Half life in C57BL/6 mouse whole blood at 100 uM by LC-MS/MS analysis; assay type: ADME, tissue-based
[5] = Half life in cynomolgus monkey whole blood at 100 uM by LC-MS/MS analysis; assay type: ADME, tissue-based, Macaca fascicularis
[6] = biological target: Proprotein convertase subtilisin/kexin type 9 (Homo sapiens, UniProt Q8NBP7); experiment: Inhibition of AlexaFluor647-tagged cyclic peptide binding to avi-tagged-biotinylated human PCSK9 measured after 2 hrs by Lance Streptavidin Europium based FRET assay
[7] = Induction of mast cell degranulation in Wistar rat isolated peritoneal cells assessed as effect on histamine release measured after 30 mins; assay type: tissue-based
[8] = Cytotoxicity against Wistar rat isolated peritoneal cells assessed as reduction in cell viability up to 60 uM measured after 30 mins; assay type: cell-based; conditions: peritoneal macrophage cell, 0.5 h
[9] = AUC (0 to infinity) in C57BL/6 mouse at 1 mg/kg, iv by LC-MS/MS analysis; assay type: ADME, organism-based; design: route intravenous, time infinity, dose 1 mg/kg; conditions: mouse, in vivo
[10] = AUC (0 to X) in C57BL/6 mouse at 1 mg/kg, iv by LC-MS/MS analysis; assay type: ADME, organism-based; design: dose 1 mg/kg; conditions: in vivo
[11] = Volume of distribution at steady state in C57BL/6 mouse at 1 mg/kg, iv by LC-MS/MS analysis; assay type: ADME, organism-based; conditions: in vivo, read-out: Vdss
[12] = Half life in C57BL/6 mouse at 1 mg/kg, iv by LC-MS/MS analysis; assay type: ADME, organism-based; conditions: in vivo
[13] = Protein binding in mouse plasma at 2.5 uM measured after 4 hrs by equilibrium dialysis based LC-MS/MS analysis; assay type: ADME, cell-free; conditions: read-out: PPB (converted)
PCSK9/LDLR = PCSK9/LDLR (Homo sapiens, UniProt Q8NBP7); experiment: Inhibition of avi-tagged-biotinylated human PCSK9 interaction with His-tagged human LDLR EGFa domain by LANCE Ulight Streptavidin based TR-FRET assay; assay type: protein assay
[14] = Rattus norvegicus, Wistar, Mast cell, 0.5 h, read-out: EC50

Chain of Chymotrypsin-like elastase family member 1 (P00772 whole entry): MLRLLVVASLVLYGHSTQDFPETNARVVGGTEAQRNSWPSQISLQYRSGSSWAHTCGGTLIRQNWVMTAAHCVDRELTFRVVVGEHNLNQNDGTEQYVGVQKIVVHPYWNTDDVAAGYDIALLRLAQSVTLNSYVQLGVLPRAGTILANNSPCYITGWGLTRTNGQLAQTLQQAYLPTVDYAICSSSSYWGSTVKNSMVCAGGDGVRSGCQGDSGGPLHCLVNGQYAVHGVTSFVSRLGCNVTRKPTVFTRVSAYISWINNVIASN
Chain of PCSK9/LDLR (Q8NBP7 31-152 limits assumed): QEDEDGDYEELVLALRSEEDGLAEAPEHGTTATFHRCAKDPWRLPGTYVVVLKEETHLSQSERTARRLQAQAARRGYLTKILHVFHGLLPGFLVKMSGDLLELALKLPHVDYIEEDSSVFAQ
Chain of PCSK9/LDLR (Q8NBP7 153-692 limits assumed): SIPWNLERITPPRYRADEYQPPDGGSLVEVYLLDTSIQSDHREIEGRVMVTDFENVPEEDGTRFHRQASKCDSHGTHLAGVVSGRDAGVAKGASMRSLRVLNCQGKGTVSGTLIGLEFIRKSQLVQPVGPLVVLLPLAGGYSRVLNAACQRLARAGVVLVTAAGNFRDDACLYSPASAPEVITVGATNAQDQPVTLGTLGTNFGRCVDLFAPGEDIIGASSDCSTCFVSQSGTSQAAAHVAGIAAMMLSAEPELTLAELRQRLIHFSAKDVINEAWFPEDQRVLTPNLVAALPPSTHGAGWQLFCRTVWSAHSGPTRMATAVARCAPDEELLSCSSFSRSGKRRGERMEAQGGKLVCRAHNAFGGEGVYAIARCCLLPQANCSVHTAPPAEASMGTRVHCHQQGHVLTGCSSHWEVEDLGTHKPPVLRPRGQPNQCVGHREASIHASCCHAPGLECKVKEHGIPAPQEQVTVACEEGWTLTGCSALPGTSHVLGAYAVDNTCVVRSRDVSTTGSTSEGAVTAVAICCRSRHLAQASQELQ
Chain of PCSK9/LDLR (P01130 22-860 partner limits assumed): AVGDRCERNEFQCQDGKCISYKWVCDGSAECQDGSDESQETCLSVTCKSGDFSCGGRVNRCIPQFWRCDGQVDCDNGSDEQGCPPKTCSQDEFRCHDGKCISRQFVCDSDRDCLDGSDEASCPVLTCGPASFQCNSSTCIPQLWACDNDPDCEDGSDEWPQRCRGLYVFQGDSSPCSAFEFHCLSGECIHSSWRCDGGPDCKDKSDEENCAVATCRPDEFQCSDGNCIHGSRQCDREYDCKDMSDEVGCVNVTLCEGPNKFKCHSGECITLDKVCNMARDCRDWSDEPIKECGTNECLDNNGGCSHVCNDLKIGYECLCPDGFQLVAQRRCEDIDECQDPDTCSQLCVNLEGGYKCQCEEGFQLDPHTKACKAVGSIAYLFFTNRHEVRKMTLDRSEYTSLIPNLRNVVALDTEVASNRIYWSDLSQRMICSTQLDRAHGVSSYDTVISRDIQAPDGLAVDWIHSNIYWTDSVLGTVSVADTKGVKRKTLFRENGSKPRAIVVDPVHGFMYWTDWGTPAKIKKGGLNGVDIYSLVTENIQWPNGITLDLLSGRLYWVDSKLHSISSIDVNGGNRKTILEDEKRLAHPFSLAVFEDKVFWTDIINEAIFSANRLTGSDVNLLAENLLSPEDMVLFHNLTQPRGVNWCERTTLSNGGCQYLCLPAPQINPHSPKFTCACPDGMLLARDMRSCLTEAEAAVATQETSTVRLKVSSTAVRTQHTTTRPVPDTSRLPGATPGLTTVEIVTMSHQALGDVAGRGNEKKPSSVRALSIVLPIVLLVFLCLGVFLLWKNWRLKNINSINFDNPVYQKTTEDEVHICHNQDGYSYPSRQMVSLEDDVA
Chain of Proprotein convertase subtilisin/kexin type 9 (Q8NBP7 31-152 limits assumed): as the sequence (Q8NBP7 31-152 limits assumed) above
Chain of Proprotein convertase subtilisin/kexin type 9 (Q8NBP7 153-692 limits assumed): as the sequence (Q8NBP7 153-692 limits assumed) above

SMILES	remaining at 1 h, 100 µM (Chymotrypsinogen A)	remaining at 1 h, 100 µM [1]	remaining at 1 h, 100 µM [2]	remaining at 1 h, 100 µM [3]	half-life at 100 µM [4]	Ki [6]	EC50 [7, 14]	Ki (PCSK9/LDLR)	EC50 ([7]; mast cell)	Activity [8]	further results
COc1ccc(C[C@@H]2NC(=O)[C@H]([C@@H](C)OC)NC(=O)[C@@H]3CCC(=O)NCc4cccc(c4)C[C@H](NC(=O)[C@@H](C)NC(=O)[C@H](C)NC(=O)CCSCc4cccc(c4)CSCCNC(=O)[C@]4(C)CCCN4C2=O)C(=O)N[C@@H](Cc2c[nH]c4ccc(F)cc24)C(=O)N3C)cc1	95.7%	98.8%	94.4%	97.6%	> 360 min	10.6 nM	–	–	–	–	half-life at 100 µM [5]: > 360 min
C[C@H]1NC(=O)[C@H](CCC(=O)O)NC(=O)CCSCc2cccc(c2)CSCCNC(=O)[C@]2(C)CCCN2C(=O)[C@H](Cc2ccc(O)cc2)NC(=O)[C@H](Cc2cnc[nH]2)NC(=O)[C@H](CC(=O)O)NC(=O)[C@H](Cc2c[nH]c3ccc(F)cc23)NC(=O)[C@H](Cc2c[nH]c3ccc(F)cc23)NC1=O	–	–	–	–	–	–	1 µM	202 nM	–	Non-Toxic	–
COc1ccc(C[C@@H]2NC(=O)[C@H](Cc3cnc[nH]3)NC(=O)[C@H](CC(=O)O)NC(=O)[C@H](Cc3c[nH]c4ccc(F)cc34)NC(=O)[C@H](Cc3c[nH]c4ccc(F)cc34)NC(=O)[C@@H](C)NC(=O)[C@H](CCCCO)NC(=O)CCSCc3cccc(c3)CSCCNC(=O)[C@]3(C)CCCN3C2=O)cc1	–	–	–	–	–	39 nM	–	78.9 nM	Non-Toxic	Non-Toxic	–
C[C@@H]1NC(=O)CCSCc2cccc(c2)CSC[C@@H](C(N)=O)NC(=O)[C@@H]2CCCN2C(=O)[C@H](Cc2ccc(O)cc2)NC(=O)[C@H](Cc2cnc[nH]2)NC(=O)[C@H](CC(=O)O)NC(=O)[C@H](Cc2c[nH]c3ccc(F)cc23)NC(=O)[C@H](Cc2c[nH]c3ccc(F)cc23)NC(=O)CNC1=O ([Mpa]AG[Trp(5-F)][Trp(5-F)]DHYPC-NH2; linker 1-10 via mXylylene)	15.5%	54.9%	92.5%	1%	89.6 min	–	–	392 nM	–	–	–
C[C@@]12CCCN1C(=O)[C@H](Cc1ccc(O)cc1)NC(=O)[C@H](Cc1cnc[nH]1)NC(=O)[C@H](CC(=O)O)NC(=O)[C@H](Cc1c[nH]c3ccc(F)cc13)NC(=O)[C@H](Cc1c[nH]c3ccc(F)cc13)NC(=O)CNC(=O)[C@H](CCCCNC(=O)CCOCCOCCOCCOCCN)NC(=O)CCSCc1cccc(c1)CSC[C@@H](C(N)=O)NC2=O ([Mpa]K(PEG4)G[Trp(5-F)][Trp(5-F)]DHY[αMeP]C-NH2; linker 1-10 via mXylylene)	–	–	–	–	–	10.7 nM	–	–	Non-Toxic	Non-Toxic	–

Now from value to molecule, other results behind:

remaining at 1 h, 100 µM (Chymotrypsinogen A)	remaining at 1 h, 100 µM [1]	remaining at 1 h, 100 µM [2]	remaining at 1 h, 100 µM [3]	half-life at 100 µM [4]	Ki [6]	EC50 [7, 14]	Ki (PCSK9/LDLR)	SMILES	EC50 ([7]; mast cell)	Activity [8]	further results
–	–	–	–	–	8.2 nM	–	–	COc1ccc(C[C@@H]2NC(=O)[C@H](Cc3cnc[nH]3)NC(=O)[C@H](CC(=O)O)NC(=O)[C@H](Cc3c[nH]c4ccc(F)cc34)NC(=O)[C@H](Cc3c[nH]c4ccc(F)cc34)NC(=O)[C@@H](C)NC(=O)[C@H](CNC(=O)COCCOCCN)NC(=O)CCSCc3cccc(c3)CSCCNC(=O)[C@]3(C)CCCN3C2=O)cc1	Non-Toxic	Non-Toxic	–
–	–	–	–	–	4.2 nM	10 µM	–	COc1ccc(C[C@@H]2NC(=O)[C@H](Cc3cnc[nH]3)NC(=O)[C@H](CC(=O)O)NC(=O)[C@H](Cc3c[nH]c4ccc(F)cc34)NC(=O)[C@H](Cc3c[nH]c4ccc(F)cc34)NC(=O)[C@@H](C)NC(=O)[C@H](CCCCN(C)C)NC(=O)CCSCc3cccc(c3)CSCCNC(=O)[C@]3(C)CCCN3C2=O)cc1	–	Non-Toxic	–
100%	100%	98.1%	95.9%	> 360 min	2.1 nM	3.12 µM	–	C[C@H]1NC(=O)[C@H](CCCCN)NC(=O)CCSCc2cccc(c2)CSC[C@@H](C(N)=O)NC(=O)[C@]2(C)CCCN2C(=O)[C@H](Cc2ccc(O)cc2)NC(=O)[C@H]([C@@H](C)O)NC(=O)[C@@H]2C[C@H](F)CN2C(=O)[C@H](Cc2c[nH]c3ccc(F)cc23)NC(=O)[C@H](Cc2c[nH]c3ccc(F)cc23)NC1=O	–	Non-Toxic	AUC [9]: 171.52 nM·h; AUC [10]: 0.171 µM·h; Vd [11]: 0.37 L/kg; half-life [12]: 96 min; fraction unbound at 4 h, 2.5 µM [13]: 0.0167

Source: ChEMBL document CHEMBL4699634, “Series of Novel and Highly Potent Cyclic Peptide PCSK9 Inhibitors Derived from an mRNA Display Screen and Optimized via Structure-Based Design” (J Med Chem, 2020)
